From patent US20150099703A1, “TREATMENT OF POSTPARTUM HAEMORRHAGE WITH CHEMICALLY MODIFIED HEPARIN OR HEPARAN SULPHATE AND A UTEROTONIC AGENT” (DILAFOR AB, priority 2012, published 2015)
Positions of bridges follow the written chain, without caps; N, C: chain ends. Non-standard residues stand in square brackets, D forms with d. Residues, ends and D or L forms follow the SMILES beside them. Orn = NCCC[C@H](N)C(=O)O; Mpa = O=C(O)CCS

Legend:
[1] = tested on: Human uterine smooth muscle cells; assay: Intracellular Ca2+ measurement (Fluo-4, confocal live cell imaging) in uterine smooth muscle cells; format: cell-based
Description: Human uterine smooth muscle cells were established in a culture. Intracellular Ca^2+ was measured with the calcium indicator dye Fluo-4 and live cell imaging with confocal microscopy was established for the cells.

[2] = heparin, comparison; cited from earlier work

NCCOB(c1ccccc1)c1ccccc1 [2-APB, 2-Aminoethoxydiphenyl borate]
effect on oxytocin stimulated Ca2+-transport ([1]; 100 μM, 30 min of incubation): decreased strongly | effect on oxytocin/DF01 stimulated Ca2+-transport ([1]; 100 μM, 30 min of incubation): decreased strongly

CCOc1ccc(C[C@H]2NC(=O)CCSSC[C@@H](C(=O)N3CCC[C@H]3C(=O)N[C@@H](CCCN)C(=O)NCC(N)=O)NC(=O)[C@H](CC(N)=O)NC(=O)[C@H]([C@@H](C)O)NC(=O)[C@H]([C@@H](C)CC)NC2=O)cc1 [Atosiban] ([Mpa][dY](Et)ITNCP[Orn]G-NH2; disulfide 1-6)
effect on the combination oxytocin/DF01 effect on Ca2+ transport ([1]; concentration of 10^−6 M): clearly inhibited | effect on the oxytocin effect on Ca2+ transport ([1]; concentration of 10^−6 M): clearly inhibited

CC[C@H](C)[C@@H]1NC(=O)[C@H](Cc2ccc(O)cc2)NC(=O)[C@@H](N)CSSC[C@@H](C(=O)N2CCC[C@H]2C(=O)N[C@@H](CC(C)C)C(=O)NCC(N)=O)NC(=O)[C@H](CC(N)=O)NC(=O)[C@H](CCC(N)=O)NC1=O [oxytocin]
Ca2+-influx to the cytosol ([1]; cells treated with oxytocin alone): Ca^2+-influx to the cytosol was demonstrated | concentration giving maximum effect on Ca2+-influx ([1]; oxytocin alone, dose-dependent effect): 0.05 IU/ml

heparin
corresponding (subcutaneous) bioavailability [2]: about 10%
